# How the values were obtained:
# [1] = test system: IFNγ (Th-1 related), IL-4, IL-5, IL-10 (Th-2 related) and iNOS mRNA; assay: Cytokine and iNOS mRNA in lung tissue by RT-PCR; format: in vivo, brown Norway rats (BNR); settings: prophylactic and therapeutic treatment, OA asthma model
# Experimental: The in vivo role of F-4 and F8 of Th1/Th2 cytokines by […] mRNA in lung tissue and nuclear factor (NF)κ B activity using an electromobility shift assay (EMSA)
# Total RNA was extracted from lung tissue samples by a method described previously and RT-PCR was performed using a RT-PCR kit (Clontech, USA). The following T-cell related cytokines were evaluated by measuring their mRNA expression: IFNγ (Th-1 related) and IL-4, IL-5 and IL-10 (all Th-2 related) and inducible nitric oxide synthase (iNOS).
# Briefly, 2 μg of RNA in a 25 μl volume was first primed with 2 μl oligo-(dT)18 primer, 20 μM, at 70° C. for 2 min and then kept on ice for 5 min. after the reaction, a mixture containing the following: 8 μl of 5×reaction buffer; 2 μl, dNTP mix […] (each); 1 μl recombinant Rnase inhibitor, 40 units/μ1; and 2 μl MMLV reverse transcriptase, 200 units/μ1, was added to synthesize cDNA. cDNA was amplified by 40 PCR cycles; each consisting of a denaturation step (94° C. for 1 min), an annealing step (65˜55° C. for 1 min, 0.5° C./cycle touch down, 55° C. for 19 cycles), and an extension step (72° C. for 1 min). During the last cycle the 72° C. step was extended to 5 min. The PCR product was analyzed on 2% agarose gel electrophoresis. The identity of each cytokine cDNA was determined by the size of the PCR product obtained by electrophoresis, and confirmed by DNA sequencing of the PCR products. […]
# [2] = test system: ovalbumin (OA) induced bronchial hyperresponsiveness; assay: Pulmonary function test, OA induced bronchial hyperresponsiveness in BNR; format: in vivo, brown Norway rats (BNR)
# From the text: The requirements for animal models include both specificity and the capacity for developing pulmonary histopathological lesions that are similar to those found in the corresponding human disorders. In view of the above considerations, three kinds of animal models were adopted for the experiments used in developing this invention. Two were invasive method and one was non-invasive method. The first and second invasive models were BNR and guinea pig asthma model induced by ovalbumin (OA). Twenty four either BNR (weight ranging from 250˜350 g) or guinea pig (380˜500 g) were divided into three groups. Each group consisted of 8 weight-matched male animals. Both group I and group II BNR were put into a closed chamber (30×30×16 cm plastic box) with two small holes, one serving as a gas inlet and the other as a gas outlet. Two mL of 1% OA was aerosolized by nebulizer and delivered continuously into the closed chamber with a gas delivery flow of 8 l/min. The animal was exposed to OA in the chamber for 10 minutes.
# A second sensitization was performed 7 days later using the same procedure. Another 7 days later, a provocation test was performed. To prevent anaphylaxis and possible death, the animals were pretreated with pyrinamine (10 mg/kg) intraperitoneally 30 minutes before the test. For provocation, the BNR inhaled 3 mL of 4% aerosolized OA by nebulizer for 10 minutes in a closed chamber, using the same procedure as for sensitization. Group I BNR or guinea pig were given Cordyceps sinensis active fraction F-4 4 mg/kg intraperitoneally 30 minutes before OA inhalation provocation. Group II control animals were treated in the same way as […], except that they were sensitized and challenged by breathing aerosolized saline instead of OA and without Cordyceps sinensis pretreatment.
# In the Cordyceps sinensis treatment study, the protocol is similar to pretreatment except F-4 is administed after OA inhalation provocation.
# For the lung function and acetylcholine provocation portion of the study, all animals were anesthetized with sodium pentobarbitone (50 mg/kg intraperitoneally). Jugular vein cannulation (PE-10 polyethylene tube filled with heparin, 1000 iu/mL in normal saline) and tracheostomy were performed. Lung function test was done 24 hours after the OA provocation test. The BNRs or pignea pigs were put in a body box (Model 6 Body Box, Buxco, Troy, N.Y., USA) in a supine position while the mice were put in a body box for mice (Anesthetized Body Box for Mice, Buxco, Troy, N.Y., USA). Gallamine triethiodide (4 mg/kg) was intravenously injected to induce paralysis and inhibit spontaneous breathing. A small animal ventilator set at a tidal volume of 6 mL/kg and a respiratory rate of 60 times/minute for the BNRs, 120 times/minute for the mice was used to ventilate the small animals. All animals were stable without spontaneous breathing 5 minutes after gallamine was given. Pulmonary function tests (PET) as described below were measured at baseline. Therefore, 25, 50, 75 and 100 μg/kg of acetylcholine (Ach) were given intravenously at 30 minute intervals. PETs were done 5 seconds after each dose of acetylcholine. Before each successive dose of Ach, the flow volume loop returned to baseline.
# The airway opening pressure (PaO) was measured by a Gould pressure transducer at the tracheotomy. Respiratory flow was measured by a DP-45-14 differential pressure transducer. When tidal breathing was examined, 3-layer 325-mesh wire screen was used to measure the pressure difference. When a maximal forced expiratory maneuver (MFEM) was performed, a 6-layer 325-mesh wire screen was used to measure the pressure difference.
# For the MFEM, the lungs were inflated to total lung capacity 9TLC, lung volume at PaO=35 cm H2O) 3 times; the inflation was regulated by a solenoid valve. At peak volume during the third inflation, the inflation valve was shut off and another solenoid valve was opened immediately for deflation. […]
# [3] = baseline, 4 mg/Kg intraperitoneally 30 minutes before OA inhalation provocation, mean±SD
# [4] = pretreated before OA inhalation provocation (group I) vs OA-treated (group II), Ach doses higher than 25 μg/kg
smiles,measurement,setting,value
"CC(C)[C@@H](C)C=C[C@@H](C)[C@H]1CC[C@H]2C3=C[C@@H](O)[C@@]4(O)C[C@@H](O)CC[C@]4(C)[C@H]3CC[C@]12C [F8, (24R)-ergosta-7,22-diene-3β, 5α, 6β,-triol]",Th1 cytokines expression,[1],enhance Th1 cytokines expression
same,Th2 cytokines and iNOS gene mRNA expression,[1],decrease Th2 cytokines and INOS gene mRNA expression
same,Cdyn (total dynamic lung compliance),[2]; [3],0.53 ± 0.05 mL/cm H2O
same,MFEF 25%,[2]; [3],35.3 ± 4.5 mL/s
same,MFEF 50%,[2]; [3],75.7 ± 4.6 mL/s
same,MFEF 75%,[2]; [3],101.5 ± 4.9 mL/s
same,PaO (airway opening pressure at tidal breathing),[2]; [3],4.3 ± 0.6 cmH2O
same,Peak flow,[2]; [3],105.6 ± 4.7 mL/s
same,Total lung capacity,[2]; [3],15.4 ± 1.5 mL
same,"percentage of baseline MFEF 25% TLC, Ach dose response",[2]; [4],group II was significantly lower then group I
same,"percentage of baseline MFEF 50% TLC, Ach dose response",[2]; [4],group II was significantly lower then group I
same,PD20 Ach (dose of Ach producing a 20% drop) for MFEF 50% and MFEF 25%,"[2]; treatment study (administered after OA inhalation provocation), group I vs OA-treated group II",significantly (p<0.001) lower in group II than in the other 2 groups

# From patent publication US20030095982A1, “Fraction of Cordyceps sinensis and method of isolation thereof” (priority 2001, published 2003)
